Measurements from ChEMBL document CHEMBL3603813, “Quinoline-based antimalarial hybrid compounds” (Bioorg Med Chem, 2015).

Columns and labels:
[1] = system: Plasmodium falciparum; test: Antiplasmodial activity against CQ-resistant Plasmodium falciparum 7G8; assay type: functional
[2] = system: Plasmodium falciparum; test: Antiplasmodial activity against CQ-resistant Plasmodium falciparum Dd2; assay type: functional, organism-based; settings: for IC50: Plasmodium falciparum, Dd2
[3] = system: Plasmodium falciparum; test: Antiplasmodial activity against CQ-sensitive Plasmodium falciparum D6; assay type: functional
[4] = system: Plasmodium falciparum; test: Antiplasmodial activity against CQ-resistant Plasmodium falciparum W2 assessed as inhibition of parasite growth; assay type: functional, organism-based
[5] = system: Plasmodium falciparum; test: Antiplasmodial activity against CQ-resistant Plasmodium falciparum K1; assay type: functional, organism-based
[6] = system: Plasmodium falciparum; test: Antiplasmodial activity against CQ-sensitive Plasmodium falciparum 3D7; assay type: functional, organism-based; settings: for IC50: Plasmodium falciparum, 3D7
[7] = system: Plasmodium falciparum; test: Antiplasmodial activity against CQ-resistant Plasmodium falciparum FCR3; assay type: functional, organism-based
[8] = system: Plasmodium berghei; test: Antimalarial activity against Plasmodium berghei infected in human HuH7 cells assessed as inhibition of liver cell infection; assay type: functional, organism-based; settings: Huh-7, Liver
[9] = Inhibition of beta-hematin formation; assay type: physicochemical
[10] = system: Plasmodium falciparum; test: Antiplasmodial activity against CQ-sensitive Plasmodium falciparum D10; assay type: functional, organism-based

Clc1ccc2c(NCCN3CCN(C(c4ccccc4)c4ccccc4)CC3)ccnc2c1
Activity [1]: 2 nM
Activity [2]: 1 nM
Activity [3]: 0.5 nM

Clc1ccc2c(NCCCN3CCN(C(c4ccccc4)c4ccccc4)CC3)ccnc2c1
Activity [1]: 2 nM
Activity [2]: 1 nM
Activity [3]: 0.5 nM

Clc1ccc2c(NCCCN3CCN(CC(c4ccccc4)c4ccccc4)CC3)ccnc2c1
Activity [1]: 2 nM
Activity [2]: 1 nM
Activity [3]: 0.5 nM

Clc1ccc2c(NCCCN3CCN(C4C5CC6CC(C5)CC4C6)CC3)ccnc2c1 (centres undefined)
Activity [1]: 2 nM
Activity [2]: 1 nM
Activity [3]: 0.5 nM

Clc1ccc2c(NCCCCN3CCN(C(c4ccccc4)c4ccccc4)CC3)ccnc2c1
Activity [1]: 2 nM
Activity [2]: 1 nM
Activity [3]: 0.5 nM

CCCN1CNc2cc(Nc3ccnc4cc(Cl)ccc34)ccc2C1
IC50 [4]: 130 nM
IC50 [5]: 220 nM

Clc1ccc2c(Nc3ccc4c(c3)NCN(Cc3ccccc3)C4)ccnc2c1
IC50 [4]: 130 nM
IC50 [5]: 220 nM

CCN1CNc2cc(Nc3ccnc4cc(Cl)ccc34)ccc2C1
IC50 [4]: 130 nM
IC50 [5]: 220 nM

O=C(/C=C/c1ccccc1)N[C@@H](CCCCCC(=O)NO)C(=O)Nc1cccc2cccnc12
IC50 [2]: 33 nM
IC50 [6]: 13 nM

CN(C)c1ccc(C(=O)N[C@@H](CCCCCC(=O)NO)C(=O)Nc2cccc3cccnc23)cc1
IC50 [2]: 33 nM
IC50 [6]: 13 nM

O=C1/C(=C/c2ccc([N+](=O)[O-])cc2)SC(=S)N1CCCNc1ccnc2cc(Cl)ccc12
IC50 [6]: < 100 nM

O=C1/C(=C/c2ccccc2[N+](=O)[O-])SC(=S)N1CCCNc1ccnc2cc(Cl)ccc12
IC50 [6]: < 100 nM

COc1cc(/C=C2\SC(=S)N(CCNc3ccnc4cc(Cl)ccc34)C2=O)cc(OC)c1OC
IC50 [6]: < 100 nM

CN(C)c1ccc(/C=C2\SC(=S)N(CCCCNc3ccnc4cc(Cl)ccc34)C2=O)cc1
IC50 [6]: < 100 nM

COc1cc(/C=C2\SC(=S)N(CCCCNc3ccnc4cc(Cl)ccc34)C2=O)cc(OC)c1OC
IC50 [6]: < 100 nM

COc1cc(/C=C2\SC(=S)N(CCCNc3ccnc4cc(Cl)ccc34)C2=O)cc(OC)c1OC
IC50 [6]: < 100 nM

Cc1c(O)c(=O)ccn1CCCCNc1ccnc2cc(Cl)ccc12
IC50 [6]: < 1000 nM

O=[N+]([O-])c1ccccc1S(=O)(=O)N1CCN(c2ccnc3cc(Cl)ccc23)CC1
IC50 [7]: 1200 nM

Cc1c(O)c(=O)ccn1CCCCCCNc1ccnc2cc(Cl)ccc12
IC50 [6]: 4 nM

CCc1c(O)c(=O)ccn1CCCCCCNc1ccnc2cc(Cl)ccc12
IC50 [6]: < 1000 nM

COc1c(C)n(CCCCCCNc2ccnc3cc(Cl)ccc23)ccc1=O
IC50 [6]: < 1000 nM

COc1c(C)n(CCCCNc2ccnc3cc(Cl)ccc23)ccc1=O
IC50 [6]: < 1000 nM

CCc1c(OCc2ccccc2)c(=O)ccn1CCCCNc1ccnc2cc(Cl)ccc12
IC50 [6]: < 1000 nM

CCc1c(OCc2ccccc2)c(=O)ccn1CCCCCCNc1ccnc2cc(Cl)ccc12
IC50 [6]: < 1000 nM

CCc1c(O)c(=O)ccn1CCCNc1ccnc2cc(Cl)ccc12
IC50 [6]: < 1000 nM

CCc1c(O)c(=O)ccn1CCCCNc1ccnc2cc(Cl)ccc12
IC50 [6]: < 1000 nM

O=C(NCCCCNc1ccnc2cc(Cl)ccc12)N[C@H]1C(=O)N(C2CCCCC2)[C@H]1/C=C/c1ccccc1
IC50 [4]: 42 nM

O=C(NCCCCCCNc1ccnc2cc(Cl)ccc12)N[C@H]1C(=O)N(C2CCCCC2)[C@H]1/C=C/c1ccccc1
IC50 [4]: 42 nM

Cc1ccc(N2C(=O)[C@H](NC(=O)NCCCCNc3ccnc4cc(Cl)ccc34)[C@@H]2/C=C/c2ccccc2)cc1
IC50 [4]: 42 nM

O=C(NCCNc1ccnc2cc(Cl)ccc12)C(=O)N[C@@H]1C(=O)N(C2CCCCC2)[C@@H]1/C=C/c1ccccc1
IC50 [4]: 34 nM

O=C(NCCCNc1ccnc2cc(Cl)ccc12)C(=O)N[C@@H]1C(=O)N(C2CCCCC2)[C@@H]1/C=C/c1ccccc1
IC50 [4]: 34 nM

O=C(NCCCCNc1ccnc2cc(Cl)ccc12)C(=O)N[C@@H]1C(=O)N(C2CCCCC2)[C@@H]1/C=C/c1ccccc1
IC50 [4]: 34 nM

O=C(NCCCCCCNc1ccnc2cc(Cl)ccc12)C(=O)N[C@@H]1C(=O)N(C2CCCCC2)[C@@H]1/C=C/c1ccccc1
IC50 [4]: 34 nM

Cc1ccc(N2C(=O)[C@@H](NC(=O)C(=O)NCCNc3ccnc4cc(Cl)ccc34)[C@H]2/C=C/c2ccccc2)cc1
IC50 [4]: 34 nM

Cc1ccc(N2C(=O)[C@@H](NC(=O)C(=O)NCCCNc3ccnc4cc(Cl)ccc34)[C@H]2/C=C/c2ccccc2)cc1
IC50 [4]: 34 nM

COc1cc(NC(C)CCCNC(=O)C2CCC3(CC2)OOC2(OO3)C3CC4CC(C3)CC2C4)c2ncccc2c1 (centres undefined)
IC50 [8]: 330 nM

COc1cc(NC(C)CCCNCC2CCC3(CC2)OOC2(OO3)C3CC4CC(C3)CC2C4)c2ncccc2c1 (centres undefined)
IC50 [4]: 21 nM
IC50 [8]: 330 nM

COc1cc(NC(C)CCCNC(=O)CC2CCC3(CC2)OOC2(OO3)C3CC4CC(C3)CC2C4)c2ncccc2c1 (centres undefined)
IC50 [4]: 21 nM
IC50 [8]: 330 nM

COc1cc(NC(C)CCCNC2CCC3(CC2)OOC2(OO3)C3CC4CC(C3)CC2C4)c2ncccc2c1 (centres undefined)
IC50 [4]: 21 nM

O=C(N[C@H](c1ccccc1)[C@H](O)C(=O)NCc1cn(CNc2ccnc3cc(Cl)ccc23)nn1)c1ccccc1
IC50 [4]: 280 nM
IC50 [5]: 390 nM

Cc1ccc(N2C(=O)[C@@H](NC(=O)C(=O)NCCCCCCNc3ccnc4cc(Cl)ccc34)[C@H]2/C=C/c2ccccc2)cc1
IC50 [4]: 34 nM

O=C(N[C@H](c1ccccc1)[C@H](O)C(=O)OCCCNc1ccnc2cc(Cl)ccc12)c1ccccc1
IC50 [4]: 130 nM

CC(=O)O[C@H](C(=O)OCCCNc1ccnc2cc(Cl)ccc12)[C@H](NC(=O)c1ccccc1)c1ccccc1
IC50 [4]: 160 nM

CN(C)c1ccc(/C=C/C(=O)c2cccc(Nc3ccnc4cc(Cl)ccc34)c2)cc1
inhibition (INH) [9]: 94%

O=C(/C=C/c1ccc(Cl)cc1)c1cccc(Nc2ccnc3cc(Cl)ccc23)c1
inhibition (INH) [9]: 94%

O=C(/C=C/c1ccccc1Cl)c1cccc(Nc2ccnc3cc(Cl)ccc23)c1
inhibition (INH) [9]: 94%

O=C(/C=C/c1cccc(F)c1)c1cccc(Nc2ccnc3cc(Cl)ccc23)c1
inhibition (INH) [9]: 94%

O=C(/C=C/c1ccccc1)c1cccc(Nc2ccnc3cc(Cl)ccc23)c1
inhibition (INH) [9]: 94%

O=C(N[C@H](c1ccccc1)[C@H](O)C(=O)NCc1cn(CCNc2ccnc3cc(Cl)ccc23)nn1)c1ccccc1
IC50 [4]: 280 nM
IC50 [5]: 390 nM

O=C(N[C@H](c1ccccc1)[C@H](O)C(=O)NCc1cn(-c2cccc(Nc3ccnc4cc(Cl)ccc34)c2)nn1)c1ccccc1
IC50 [4]: 280 nM
IC50 [5]: 390 nM

O=C(N[C@H](c1ccccc1)[C@H](O)C(=O)NCc1cn(-c2ccccc2Nc2ccnc3cc(Cl)ccc23)nn1)c1ccccc1
IC50 [4]: 280 nM
IC50 [5]: 390 nM

C[C@H]1[C@@H](OCCN(CCCNc2ccnc3cc(Cl)ccc23)CCO[C@H]2O[C@@H]3O[C@@]4(C)CC[C@H]5[C@H](C)CC[C@@H]([C@H]2C)[C@@]35OO4)O[C@@H]2O[C@@]3(C)CC[C@H]4[C@H](C)CC[C@@H]1[C@@]24OO3
Activity [6]: 9 nM

C[C@H]1[C@@H](OCC[N+]2(CCO[C@H]3O[C@@H]4O[C@@]5(C)CC[C@H]6[C@H](C)CC[C@@H]([C@H]3C)[C@@]46OO5)CCN(CCNc3ccnc4cc(Cl)ccc34)CC2)O[C@@H]2O[C@@]3(C)CC[C@H]4[C@H](C)CC[C@@H]1[C@@]24OO3
Activity [6]: 30 nM

C=C[C@H]1CN2CC[C@H]1C[C@H]2[C@H](OC(=O)C(C)NC(=O)c1cn(CC)c2cc3c(cc2c1=O)OCO3)c1ccnc2ccc(OC)cc12 (some centres undefined)
IC50 [6]: 12 nM

C=C[C@H]1CN2CC[C@H]1C[C@H]2[C@H](OC(=O)C(C)NC(=O)c1cn(CC)c2ncccc2c1=O)c1ccnc2ccc(OC)cc12 (some centres undefined)
IC50 [6]: 16 nM

C=C[C@H]1CN2CC[C@H]1C[C@H]2[C@H](OC(=O)CNC(=O)c1cn2c3c(c(N4CCN(C)CC4)c(F)cc3c1=O)CC[C@H]2C)c1ccnc2ccc(OC)cc12
IC50 [6]: 12 nM

C=C[C@H]1CN2CC[C@H]1C[C@H]2[C@H](OC(=O)CNC(=O)c1cn(C2CC2)c2nc(N3CCN(CC)CC3)c(F)cc2c1=O)c1ccnc2ccc(OC)cc12
IC50 [6]: 12 nM

Cc1ccc(N2C(=O)[C@@H](NCCNc3ccnc4cc(Cl)ccc34)[C@H]2/C=C/c2ccccc2)cc1
IC50 [4]: 80 nM

Cc1ccc(N2C(=O)[C@H](NC(=O)CCCNc3ccnc4cc(Cl)ccc34)[C@@H]2/C=C/c2ccccc2)cc1
IC50 [4]: 80 nM

Cc1ccc(N2C(=O)[C@H](NC(=O)CCCCCNc3ccnc4cc(Cl)ccc34)[C@@H]2/C=C/c2ccccc2)cc1
IC50 [4]: 80 nM

O=C(NCCNc1cccc2cc(Cl)ccc12)N[C@H]1C(=O)N(C2CCCCC2)[C@H]1/C=C/c1ccccc1
IC50 [4]: 42 nM

O=C(NCCCNc1cccc2cc(Cl)ccc12)N[C@H]1C(=O)N(C2CCCCC2)[C@H]1/C=C/c1ccccc1
IC50 [4]: 42 nM

Cc1ccc(N2C(=O)[C@H](NC(=O)NCCNc3cccc4cc(Cl)ccc34)[C@@H]2/C=C/c2ccccc2)cc1
IC50 [4]: 42 nM

Cc1ccc(N2C(=O)[C@H](NC(=O)NCCCNc3cccc4cc(Cl)ccc34)[C@@H]2/C=C/c2ccccc2)cc1
IC50 [4]: 42 nM

Cc1ccc(N2C(=O)[C@@H](NC(=O)C(=O)NCCCCNc3ccnc4cc(Cl)ccc34)[C@H]2/C=C/c2ccccc2)cc1
IC50 [4]: 34 nM

C[C@H]1[C@@H](OCc2ccc(C(=O)N(CCNc3ccnc4cc(Cl)ccc34)CC(=O)NC(C)(C)C)cc2)O[C@@H]2O[C@@]3(C)CC[C@H]4[C@H](C)CC[C@@H]1[C@@]24OO3
IC50 [5]: 19 nM
IC50 [10]: 26 nM

C[C@H]1[C@@H](OCc2ccc(C(=O)N(CCNc3ccnc4cc(Cl)ccc34)CC(=O)NC3CCCCC3)cc2)O[C@@H]2O[C@@]3(C)CC[C@H]4[C@H](C)CC[C@@H]1[C@@]24OO3
IC50 [5]: 19 nM
IC50 [10]: 26 nM

C[C@H]1[C@@H](OCc2cccc(C(=O)N(CCCCNc3ccnc4cc(Cl)ccc34)CC(=O)NC3CCCCC3)c2)O[C@@H]2O[C@@]3(C)CC[C@H]4[C@H](C)CC[C@@H]1[C@@]24OO3
IC50 [5]: 19 nM
IC50 [10]: 26 nM

COc1cc(NC(C)CCCN)c2ncccc2c1 (centres undefined) [PRIMAQUINE]
IC50 [8]: 7500 nM

C=C[C@H]1CN2CC[C@H]1C[C@H]2[C@H](O)c1ccnc2ccc(OC)cc12 [QUININE]
IC50 [6]: 18 nM
